The molecules below were run against Human cGAS amino acids 155-522 (Homo sapiens (Human), UniProt Q8N884) (assay: cGAS biochemical activity assay (ATP remaining, Kinase-Glo Max luminescence)). Details: human cGAS 155-522, ATP remaining (Kinase-Glo Max); read-out: cGAS IC50.
Human cGAS amino acids 155-522, sequence (Q8N884 157-522): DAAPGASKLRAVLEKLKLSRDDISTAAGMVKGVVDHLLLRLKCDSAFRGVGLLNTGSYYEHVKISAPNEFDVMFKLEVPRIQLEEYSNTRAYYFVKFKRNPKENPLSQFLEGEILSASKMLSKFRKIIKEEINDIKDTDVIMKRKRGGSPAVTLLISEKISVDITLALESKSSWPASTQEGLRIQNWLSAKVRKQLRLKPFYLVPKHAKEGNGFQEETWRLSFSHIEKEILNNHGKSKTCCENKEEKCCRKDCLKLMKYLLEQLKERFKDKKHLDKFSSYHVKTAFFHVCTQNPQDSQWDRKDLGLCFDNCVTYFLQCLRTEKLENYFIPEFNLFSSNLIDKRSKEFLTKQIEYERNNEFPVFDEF
Cc1[nH]c2c(-c3ccccc3)c(C(F)(F)F)nn2c(=O)c1-c1nnc(-c2ccccc2N)o1 [Compound D1082, 6-(5-(2-aminophenyl)-1,3,4-oxadiazol-2-yl)-5-methyl-3-phenyl-2-(trifluoromethyl)pyrazolo[1,5-a]pyrimidin-7(4H)-one] gave an IC50 of 20 to 250 µM.
Work on Cc1[nH]c2c(-c3ccccc3)c(C(F)(F)F)nn2c(=O)c1CC(=O)Nc1cccnc1 [Compound B1008, 2-(5-methyl-7-oxo-3-phenyl-2-(trifluoromethyl)-4,7-dihydropyrazolo[1,5-a]pyrimidin-6-yl)-N-(pyridin-3-yl)acetamide] yielded an IC50 of 20 to 250 µM.
With Cc1[nH]c2c(-c3ccccc3)c(C(F)(F)F)nn2c(=O)c1C(=O)NC1CCN(C)CC1 [Compound A1026, 5-methyl-N-(1-methylpiperidin-4-yl)-7-oxo-3-phenyl-2-(trifluoromethyl)-4,7-dihydropyrazolo[1,5-a]pyrimidine-6-carboxamide] the IC50 was 20 to 250 µM.
COC1CCN(c2nnc(-c3c(C)[nH]c4c(-c5ccccc5)c(C(F)(F)F)nn4c3=O)o2)C1 (stereo not shown) [Compound D1037, 6-(5-(3-methoxypyrrolidin-1-yl)-1,3,4-oxadiazol-2-yl)-5-methyl-3-phenyl-2-(trifluoromethyl)pyrazolo[1,5-a]pyrimidin-7(4H)-one] was tested, and the IC50 was < 20 µM.
Cc1[nH]c2c(-c3ccccc3)c(C(F)(F)F)nn2c(=O)c1C(=O)Nc1cnccn1 [Compound A1024, 5-methyl-7-oxo-3-phenyl-N-(pyrazin-2-yl)-2-(trifluoromethyl)-4,7-dihydropyrazolo[1,5-a]pyrimidine-6-carboxamide] was tested, and the IC50 was < 20 µM.
Cc1[nH]c2c(-c3ccccc3)c(C(F)(F)F)nn2c(=O)c1C(=O)NC1CCCCC1 [Compound A1010, N-cyclohexyl-5-methyl-7-oxo-3-phenyl-2-(trifluoromethyl)-4,7-dihydropyrazolo[1,5-a]pyrimidine-6-carboxamide] showed an IC50 of 20 to 250 µM.
COc1cccc2oc(-c3c(C)[nH]c4c(-c5ccccc5)c(OCC(=O)O)nn4c3=O)nc12 [Compound C1072, 2-((6-(4-methoxybenzo[d]oxazol-2-yl)-5-methyl-7-oxo-3-phenyl-4,7-dihydropyrazolo[1,5-a]pyrimidin-2-yl)oxy)acetic acid] gave an IC50 of 20 to 250 µM.
With COc1cccc2oc(-c3c(C(=O)N[C@@H](C)CO)[nH]c4c(-c5ccccc5)c(C(F)(F)F)nn4c3=O)nc12 [Compound C1196, (S)-N-(1-hydroxypropan-2-yl)-6-(4-methoxybenzo[d]oxazol-2-yl)-7-oxo-3-phenyl-2-(trifluoromethyl)-4,7-dihydropyrazolo[1,5-a]pyrimidine-5-carboxamide] the IC50 was < 20 µM.
COc1cccc2oc(-c3c(C)[nH]c4c(-c5ccccn5)c(C(F)(F)F)nn4c3=O)nc12 [Compound C1127, 6-(4-methoxybenzo[d]oxazol-2-yl)-5-methyl-3-(pyridin-2-yl)-2-(trifluoromethyl)pyrazolo[1,5-a]pyrimidin-7(4H)-one] gave an IC50 of 20 to 250 µM.
For COc1ccc(-c2nnc(Cc3c(C)[nH]c4c(-c5ccccc5)c(C(F)(F)F)nn4c3=O)o2)cc1 [Compound D1033, 6-((5-(4-methoxyphenyl)-1,3,4-oxadiazol-2-yl)methyl)-5-methyl-3-phenyl-2-(trifluoromethyl)pyrazolo[1,5-a]pyrimidin-7(4H)-one], the IC50 was 20 to 250 µM.
For COc1cccc(NC(=O)c2c(C)[nH]c3c(-c4ccccc4)c(C(F)(F)F)nn3c2=O)c1OC [Compound A1043, N-(2,3-dimethoxyphenyl)-5-methyl-7-oxo-3-phenyl-2-(trifluoromethyl)-4,7-dihydropyrazolo[1,5-a]pyrimidine-6-carboxamide], the IC50 was 20 to 250 µM.
In the case of Cc1[nH]c2c(-c3ccccc3)c(C(F)(F)F)nn2c(=O)c1-c1nnc(N2CCCC(CN)C2)o1 (stereo not shown) [Compound D1083, 6-(5-(3-(aminomethyl)piperidin-1-yl)-1,3,4-oxadiazol-2-yl)-5-methyl-3-phenyl-2-(trifluoromethyl)pyrazolo[1,5-a]pyrimidin-7(4H)-one], the IC50 is reported as 20 to 250 µM.
Work on Cc1[nH]c2c(-c3ccccc3)c(C(F)(F)F)nn2c(=O)c1C(=O)Nc1ccccc1N1CCCC1 [Compound A1054, 5-methyl-7-oxo-3-phenyl-N-(2-(pyrrolidin-1-yl)phenyl)-2-(trifluoromethyl)-4,7-dihydropyrazolo[1,5-a]pyrimidine-6-carboxamide] yielded an IC50 of 20 to 250 µM.
For Cc1[nH]c2c(-c3ccccc3)c(C(F)(F)F)nn2c(=O)c1C(=O)N1CCOCC1 [Compound A1004, 5-methyl-6-(morpholine-4-carbonyl)-3-phenyl-2-(trifluoromethyl)pyrazolo[1,5-a]pyrimidin-7(4H)-one], the IC50 was > 250 µM.
With Cc1[nH]c2c(-c3ccccc3)c(C(F)(F)F)nn2c(=O)c1-c1nnc(C(=N)N)o1 [Compound D1074, 5-(5-methyl-7-oxo-3-phenyl-2-(trifluoromethyl)-4,7-dihydropyrazolo[1,5-a]pyrimidin-6-yl)-1,3,4-oxadiazole-2-carboximidamide] the IC50 was < 20 µM.
Cc1[nH]c2c(-c3ccccc3)c(C(F)(F)F)nn2c(=O)c1C(=O)Nc1ccon1 [Compound A1020, N-(isoxazol-3-yl)-5-methyl-7-oxo-3-phenyl-2-(trifluoromethyl)-4,7-dihydropyrazolo[1,5-a]pyrimidine-6-carboxamide] showed an IC50 of 20 to 250 µM.
For Cc1[nH]c2c(-c3ccccc3)c(C(F)(F)F)nn2c(=O)c1C(=O)Nc1cccc(Cl)c1 [Compound A1030, N-(3-chlorophenyl)-5-methyl-7-oxo-3-phenyl-2-(trifluoromethyl)-4,7-dihydropyrazolo[1,5-a]pyrimidine-6-carboxamide], the IC50 was < 20 µM.
With COc1cccc2c1nc(-c1c(C)[nH]c3c(-c4ccccc4)c(C(F)(F)F)nn3c1=O)n2CCO [Compound C1201, 6-(1-(2-hydroxyethyl)-4-methoxy-1H-benzo[d]imidazol-2-yl)-5-methyl-3-phenyl-2-(trifluoromethyl)pyrazolo[1,5-a]pyrimidin-7(4H)-one] the IC50 was 20 to 250 µM.
With Cc1[nH]c2c(-c3ccccc3)c(C(F)(F)F)nn2c(=O)c1C(=O)Nc1ccc(C#N)cc1 [Compound A1015, N-(4-cyanophenyl)-5-methyl-7-oxo-3-phenyl-2-(trifluoromethyl)-4,7-dihydropyrazolo[1,5-a]pyrimidine-6-carboxamide] the IC50 was 20 to 250 µM.
For Cc1[nH]c2c(-c3ccccc3)c(C(F)(F)F)nn2c(=O)c1N1Cc2ccccc2C1=O [Compound C1214, 5-methyl-6-(1-oxoisoindolin-2-yl)-3-phenyl-2-(trifluoromethyl)pyrazolo[1,5-a]pyrimidin-7(4H)-one], the IC50 was 20 to 250 µM.
With COc1cccc2oc(-c3c(C4CCC(C(=O)O)C4)[nH]c4c(-c5ccccc5)c(C(F)(F)F)nn4c3=O)nc12 (stereo not shown) [Compound C1239, 3-(6-(4-methoxybenzo[d]oxazol-2-yl)-7-oxo-3-phenyl-2-(trifluoromethyl)-4,7-dihydropyrazolo[1,5-a]pyrimidin-5-yl)cyclopentane-1-carboxylic acid] the IC50 was < 20 µM.
With COc1cccc2c1nc(-c1c(C)[nH]c3c(-c4ccccc4)c(C(F)(F)F)nn3c1=O)n2CC1CC1 [Compound C1189, 6-(1-(cyclopropylmethyl)-4-methoxy-1H-benzo[d]imidazol-2-yl)-5-methyl-3-phenyl-2-(trifluoromethyl)pyrazolo[1,5-a]pyrimidin-7(4H)-one] the IC50 was 20 to 250 µM.
Cc1[nH]c2c(-c3ccccc3)c(C(F)(F)F)nn2c(=O)c1C(=O)Nc1[nH]nc(C(F)(F)F)c1C(C)C [Compound A1058, N-(4-isopropyl-3-(trifluoromethyl)-1H-pyrazol-5-yl)-5-methyl-7-oxo-3-phenyl-2-(trifluoromethyl)-4,7-dihydropyrazolo[1,5-a]pyrimidine-6-carboxamide] gave an IC50 of 20 to 250 µM.
In the case of Cc1[nH]c2c(-c3ccccc3)c(C(F)(F)F)nn2c(=O)c1Cc1nnc(C2CCCCC2)o1 [Compound D1035, 6-((5-cyclohexyl-1,3,4-oxadiazol-2-yl)methyl)-5-methyl-3-phenyl-2-(trifluoromethyl)pyrazolo[1,5-a]pyrimidin-7(4H)-one], the IC50 is reported as 20 to 250 µM.
COc1ccc(NC(=O)Cc2c(C)[nH]c3c(-c4ccccc4)c(C(F)(F)F)nn3c2=O)cc1 [Compound B1006, N-(4-methoxyphenyl)-2-(5-methyl-7-oxo-3-phenyl-2-(trifluoromethyl)-4,7-dihydropyrazolo[1,5-a]pyrimidin-6-yl)acetamide] showed an IC50 of 20 to 250 µM.
CC(=O)Nc1cccc(NC(=O)c2c(C)[nH]c3c(-c4ccccc4)c(C(F)(F)F)nn3c2=O)c1 [Compound A1039, N-(3-acetamidophenyl)-5-methyl-7-oxo-3-phenyl-2-(trifluoromethyl)-4,7-dihydropyrazolo[1,5-a]pyrimidine-6-carboxamide] was tested, and the IC50 was 20 to 250 µM.
With COc1cc(NC(=O)c2c(C)[nH]c3c(-c4ccccc4)c(C(F)(F)F)nn3c2=O)ccn1 [Compound A1087, N-(2-methoxypyridin-4-yl)-5-methyl-7-oxo-3-phenyl-2-(trifluoromethyl)-4,7-dihydropyrazolo[1,5-a]pyrimidine-6-carboxamide] the IC50 was 20 to 250 µM.
COCc1nc(-c2c(C)[nH]c3c(-c4ccccc4)c(C(F)(F)F)nn3c2=O)oc1C1CCCCC1 [Compound C1158, 6-(5-cyclohexyl-4-(methoxymethyl)oxazol-2-yl)-5-methyl-3-phenyl-2-(trifluoromethyl)pyrazolo[1,5-a]pyrimidin-7(4H)-one] was tested, and the IC50 was > 250 µM.
In the case of COc1cccc(-c2c(C(F)(F)F)nn3c(=O)c(-c4nc5c(OC)cccc5o4)c(C)[nH]c23)c1 [Compound C1120, 6-(4-methoxybenzo[d]oxazol-2-yl)-3-(3-methoxyphenyl)-5-methyl-2-(trifluoromethyl)pyrazolo[1,5-a]pyrimidin-7(4H)-one], the IC50 is reported as 20 to 250 µM.
Work on COc1ccccc1NC(=O)c1c[nH]c2c(-c3ccccc3)c(C(F)(F)F)nn2c1=O [Compound A1057, N-(2-methoxyphenyl)-7-oxo-3-phenyl-2-(trifluoromethyl)-4,7-dihydropyrazolo[1,5-a]pyrimidine-6-carboxamide] yielded an IC50 of 20 to 250 µM.
Molecule Cc1[nH]c2c(-c3ccccc3)c(C(F)(F)F)nn2c(=O)c1C(=O)Nc1ccccc1NS(=O)(=O)C1CCCCC1 [Compound A1119, N-(2-(cyclohexanesulfonamido)phenyl)-5-methyl-7-oxo-3-phenyl-2-(trifluoromethyl)-4,7-dihydropyrazolo[1,5-a]pyrimidine-6-carboxamide] has an IC50 of 20 to 250 µM.

From US10738056B2 (Aduro BioTech, Inc., priority 2017, dated 2020)
